{"source": "patent US20170042888A1", "about": "“GLYT1 INHIBITORS FOR USE IN THE TREATMENT OF HEMATOLOGICAL DISORDERS” (Hoffmann-La Roche Inc., priority 2014, published 2017)", "key": {"female Wistar rats [1]": {"tested_on": "female Wistar rats", "assay": "8-week dietary admix study in female Wistar rats, hematological parameters in peripheral blood (SYSMEX XT analyser)", "format": "in vivo, rat", "experimental": "FIG. 1 Effect of 4-(3-fluoro-5-trifluoromethyl-pyridin-2-yl)-piperazin-1-yl]-[5-methanesulfonyl-2-((S)-2,2,2-trifluoro-1-methyl-ethoxy)-phenyl]-methanone on mean group hemoglobin in female rats (8-week study)\n4-(3-Fluoro-5-trifluoromethyl-pyridin-2-yl)-piperazin-1-yl]-[5-methanesulfonyl-2-((S)-2,2,2-trifluoro-1-methyl-ethoxy)-phenyl]-methanone was administered daily for 8-weeks by dietary admix to female Wistar rats to achieve doses of 1, 3, and 8 mg/kg/day, followed by a 4-week recovery period off treatment. The control group received standard diet only during the whole study period. At various time points during the study hematological parameters including Hb were investigated in peripheral blood using a SYSMEX XT analyser. Data represent group mean values and error bars indicate standard deviation (SD).\nFIG. 3 Effect of 4-(3-fluoro-5-trifluoromethyl-pyridin-2-yl)-piperazin-1-yl]-[5-methanesulfonyl-2-((S)-2,2,2-trifluoro-1-methyl-ethoxy)-phenyl]-methanone on mean group MCH in female rats (8-week study)\n4-(3-fluoro-5-trifluoromethyl-pyridin-2-yl)-piperazin-1-yl]-[5-methanesulfonyl-2-((S)-2,2,2-trifluoro-1-methyl-ethoxy)-phenyl]-methanone was administered daily for 8-weeks by dietary admix to female Wistar rats to achieve doses of 1, 3, and 8 mg/kg/day followed by a 4-week recovery period off treatment. The control group received standard diet during the whole study period. At various time points during the study hematological parameters including MCH were investigated in peripheral blood using a SYSMEX XT analyser. Data represent group mean values and error bars indicate the standard deviation (SD)."}, "[2]": {"tested_on": "soluble transferrin receptor (sTfrR)", "assay": "36-week oral study in cynomolgus monkeys, sTfR in peripheral blood (SISCAPA assay with mass spectrometry)", "format": "in vivo, cynomolgus monkey", "details": "cynomolgus monkeys, 1, 3 and 9 mg/kg/day by capsule via oral gavage for 36 weeks (FIG. 5)", "experimental": "FIG. 5 Effect of 4-(3-fluoro-5-trifluoromethyl-pyridin-2-yl)-piperazin-1-yl]-[5-methanesulfonyl-2-((S)-2,2,2-trifluoro-1-methyl-ethoxy)-phenyl]-methanone on sTrfR in female cynomolgus monkeys\n4-(3-fluoro-5-trifluoromethyl-pyridin-2-yl)-piperazin-1-yl]-[5-methanesulfonyl-2-((S)-2,2,2-trifluoro-1-methyl-ethoxy)-phenyl]-methanone was administered by capsule via oral gavage to 4 male and 4 female cynomolgus monkeys per group at dose levels of control vehicle, 1, 3 and 9 mg/kg/day for 36 weeks. An additional 2 animals per sex from the control and high-dose group were maintained for an additional 13-week recovery period for assessment of reversibility of any findings. Measurement of sTfR was performed on various occasions during the study in peripheral blood samples. Measurements were done using a SISCAPA Assay Technologies Inc. developed assay, designed to identify the soluble fragment of the human transferrin receptor (sTfR) in serum, plasma and blood using the SISCAPA® workflow in combination with mass spectrometry. The human assay was adapted and validated for cynomolgus sTf measurements. Data shown represent group mean values, error bars indicate the standard deviation."}, "female Wistar rats [3]": {"tested_on": "female Wistar rats", "assay": "26-week oral gavage study in female Wistar rats, hematological parameters in peripheral blood (Bayer ADVIA 120)", "format": "in vivo, rat", "experimental": "FIG. 2 Effect of [5-Methanesulfonyl-2-((S)-2,2,2-trifluoro-1-methyl-ethoxy) phenyl]-(3-trifluoromethyl-5,7-dihydro-pyrrolo[3,4-b]pyridin-6-yl)-methanone on mean group hemoglobin in female rats (26-week study)\n(§1) [5-Methanesulfonyl-2-((S)-2,2,2-trifluoro-1-methyl-ethoxy)phenyl]-(3-trifluoromethyl-5,7-dihydro-pyrrolo[3,4-b]pyridin-6-yl)-methanone was administered daily for 26-weeks by oral gavage to 20 females Wistar rats per group at doses of 2, 6 and 12 mg/kg/day, followed by a 4-week recovery period off treatment for which 6 additional females where allocated per dose group. The control group was treated with a vehicle control during the dosing period. At various time points during the study hematological parameters including Hb were investigated in peripheral blood using the Bayer, ADVIA 120 hematology analyser. Data represent group mean values and error bars indicate the standard deviation (SD).\nFIG. 4 Effect of [5-Methanesulfonyl-2-((S)-2,2,2-trifluoro-1-methyl-ethoxy)phenyl](3-trifluoromethyl-5,7-dihydro-pyrrolo[3,4-b]pyridin-6-yl)-methanone on mean group MCH in female rats (26-week study)\nas §1, with “[5-Methanesulfonyl-2-((S)-2,2,2-trifluoro-1-methyl-ethoxy)phenyl](3-trifluoromethyl-5,7-dihydro-pyrrolo[3,4-b]pyridin-6-yl)-methanone” for “[5-Methanesulfonyl-2-((S)-2,2,2-trifluoro-1-methyl-ethoxy)phenyl]-(3-trifluoromethyl-5,7-dihydro-pyrrolo[3,4-b]pyridin-6-yl)-methanone”, “haematology” for “hematology”"}}}
{"compound": "C[C@H](Oc1ccc(S(C)(=O)=O)cc1C(=O)N1CCN(c2ncc(C(F)(F)F)cc2F)CC1)C(F)(F)F", "note": "[[4-(3-fluoro-5-trifluoromethyl-pyridin-2-yl)-piperazin-1-yl]-[5-methanesulfonyl-2-((S)-2,2,2-trifluoro-1-methyl-ethoxy)-phenyl]-methanone]", "values": [{"measurement": "overall maximal decrease in total hemoglobin concentration", "setting": "female Wistar rats [1]; female Wistar rats, 1, 3 and 8 mg/kg/day by dietary admix for 8 weeks", "result": "≤ 20", "unit": "%"}, {"measurement": "induced erythropoiesis type", "setting": "female Wistar rats [1]; female Wistar rats, 1, 3 and 8 mg/kg/day by dietary admix for 8 weeks, all dose levels", "result": "microcytic, hypochromic erythropoiesis"}, {"measurement": "total hemoglobin concentration", "setting": "female Wistar rats [1]; female Wistar rats, 1, 3 and 8 mg/kg/day by dietary admix for 8 weeks, all dose levels (FIG. 1)", "result": "reduction"}, {"measurement": "intracellular hemoglobin, MCH", "setting": "female Wistar rats [1]; female Wistar rats, 1, 3 and 8 mg/kg/day by dietary admix for 8 weeks, all dose levels (FIG. 3)", "result": "reduction"}, {"measurement": "reversibility of the hemoglobin effect", "setting": "female Wistar rats [1]; female Wistar rats, 4-week recovery period off treatment after 8 weeks", "result": "reversible"}, {"measurement": "soluble transferrin receptor (sTfrR) in peripheral blood", "setting": "[2]", "result": "dose-dependent decrease"}]}
{"compound": "C[C@H](Oc1ccc(S(C)(=O)=O)cc1C(=O)N1Cc2cc(C(F)(F)F)cnc2C1)C(F)(F)F", "note": "[[5-methanesulfonyl-2-((S)-2,2,2-trifluoro-1-methyl-ethoxy)-phenyl]-(3-trifluoromethyl-5,7-dihydro-pyrrolo[3,4-b]pyridin-6-yl)-methanone]", "values": [{"measurement": "overall maximal decrease in total hemoglobin concentration", "setting": "female Wistar rats [3]; female Wistar rats, 2, 6 and 12 mg/kg/day by oral gavage for 26 weeks", "result": "≤ 20", "unit": "%"}, {"measurement": "induced erythropoiesis type", "setting": "female Wistar rats [3]; female Wistar rats, 2, 6 and 12 mg/kg/day by oral gavage for 26 weeks, all dose levels", "result": "microcytic, hypochromic erythropoiesis"}, {"measurement": "total hemoglobin concentration", "setting": "female Wistar rats [3]; female Wistar rats, 2, 6 and 12 mg/kg/day by oral gavage for 26 weeks, all dose levels (FIG. 2)", "result": "reduction"}, {"measurement": "intracellular hemoglobin, MCH", "setting": "female Wistar rats [3]; female Wistar rats, 2, 6 and 12 mg/kg/day by oral gavage for 26 weeks, all dose levels (FIG. 4)", "result": "reduction"}, {"measurement": "reversibility of the hemoglobin effect", "setting": "female Wistar rats [3]; female Wistar rats, 4-week recovery period off treatment after 26 weeks", "result": "reversible"}]}
